In the NIST ThermoML archive (doi:10.1016/j.jct.2008.10.010):

How the values were obtained:
[1] = 298.15 K; 101.33 kPa; Liquid; Pycnometric method
[2] = refractive index (Na D-line) (dimensionless); settings: 298.15 K; 101.33 kPa; Liquid; Standard Abbe refractometry
[3] = molar heat capacity at constant pressure; settings: 101.33 kPa, Liquid, Small sample (50 mg) DSC

CCC(C)(C)O [2-methylbutan-2-ol]
Settings | mass density [kg/m3] | refractive index
[1] | 804.32 | –
[2] | – | 1.4025

[3]
Settings | molar heat capacity at constant pressure [J/K/mol]
284.14 K | 233.4
285.15 K | 234.44
286.16 K | 235.36
287.14 K | 236.15
288.15 K | 237.23
289.14 K | 238.19
290.14 K | 239.11
291.15 K | 240.18
292.14 K | 241.19
293.14 K | 242.22
294.15 K | 243.25
295.14 K | 244.25
296.14 K | 245.3
297.15 K | 246.36
298.14 K | 247.43
298.15 K | 247.44
298.16 K | 247.45
299.14 K | 248.43
300.15 K | 249.45
301.14 K | 250.56
302.14 K | 251.71
303.15 K | 252.8
304.14 K | 253.86
305.14 K | 255.01
306.15 K | 256.09
307.16 K | 257.16
308.14 K | 258.22
309.15 K | 259.29
310.16 K | 260.36
311.14 K | 261.32
312.15 K | 262.41
313.16 K | 263.51
314.14 K | 264.5
315.15 K | 265.53
316.16 K | 266.49
317.14 K | 267.5
318.15 K | 268.57
319.15 K | 269.56
320.14 K | 270.43
321.15 K | 271.49
322.15 K | 272.37
323.14 K | 273.32
324.15 K | 274.25
325.15 K | 275.15
326.14 K | 276.09
327.15 K | 276.89
328.15 K | 277.86
329.14 K | 278.7
330.14 K | 279.59
331.15 K | 280.35
332.14 K | 281.18
333.14 K | 282.05
334.15 K | 283
335.14 K | 283.68
336.14 K | 284.35
337.15 K | 285.19
338.14 K | 285.94
339.14 K | 286.59
340.15 K | 287.37
341.13 K | 287.88
342.14 K | 288.59
343.15 K | 289.15
344.16 K | 289.83
345.14 K | 290.42
346.15 K | 290.94
347.16 K | 291.42
348.14 K | 292.03
349.15 K | 292.61
350.16 K | 293.03
351.14 K | 293.51
352.15 K | 293.87
353.15 K | 294.39
354.15 K | 294.87
355.13 K | 295.24
356.14 K | 295.66
357.15 K | 296.1
358.15 K | 296.36
359.14 K | 296.72
360.15 K | 296.98
361.15 K | 297.18
362.15 K | 297.48
363.14 K | 297.69
364.15 K | 297.95
365.15 K | 298.16
366.14 K | 298.39
367.15 K | 298.46
368.15 K | 298.75
368.76 K | 298.79

OC1CCCC1 [cyclopentanol]
Settings | mass density [kg/m3] | refractive index
[1] | 942.86 | –
[2] | – | 1.4512

[3]
Settings | molar heat capacity at constant pressure [J/K/mol]
284.16 K | 170.24
285.15 K | 170.99
286.16 K | 171.81
287.14 K | 172.53
288.15 K | 173.41
289.16 K | 174.28
290.14 K | 175.01
291.15 K | 175.87
292.16 K | 176.75
293.14 K | 177.58
294.15 K | 178.43
295.16 K | 179.3
296.14 K | 180.09
297.15 K | 180.97
298.14 K | 181.8
298.15 K | 181.82
298.16 K | 181.83
299.14 K | 182.68
300.15 K | 183.51
301.16 K | 184.44
302.14 K | 185.33
303.15 K | 186.22
304.16 K | 187.09
305.14 K | 188.03
306.15 K | 188.94
307.16 K | 189.83
308.14 K | 190.71
309.15 K | 191.61
310.16 K | 192.53
311.14 K | 193.42
312.15 K | 194.35
313.16 K | 195.28
314.14 K | 196.15
315.15 K | 197.1
316.16 K | 198.01
317.14 K | 198.91
318.15 K | 199.88
319.15 K | 200.81
320.14 K | 201.63
321.15 K | 202.63
322.15 K | 203.57
323.14 K | 204.44
324.15 K | 205.36
325.15 K | 206.28
326.16 K | 207.24
327.15 K | 208.09
328.15 K | 209.05
329.14 K | 209.96
330.14 K | 210.87
331.15 K | 211.73
332.14 K | 212.64
333.14 K | 213.55
334.15 K | 214.51
335.16 K | 215.32
336.14 K | 216.18
337.15 K | 217.08
338.16 K | 218.05
339.14 K | 218.88
340.15 K | 219.81
341.16 K | 220.6
342.14 K | 221.48
343.15 K | 222.33
344.16 K | 223.27
345.14 K | 224.05
346.15 K | 224.85
347.16 K | 225.68
348.14 K | 226.51
349.15 K | 227.32
350.15 K | 228.13
351.14 K | 228.9
352.15 K | 229.66
353.15 K | 230.44
